pIC50: −log10 of the molar value. Values after ≈ are worked out from the molar mass of the structure shown. Active and inactive are the calls of the source. The calls are words filed in the database; no cut-off is given here.
Tests used:
Candida albicans [1] = test: microbe, parasite or virus in culture; format: functional; conditions: Candida albicans, 0304103, 48 h
Description: Antifungal activity against FLC resistant Candida albicans 0304103 after 48 hrs by checkerboard microdilution method

Candida albicans [2] = test: Antifungal activity against FLC resistant Candida albicans 100 after 48 hrs by checkerboard microdilution method; format: functional; conditions: Candida albicans, 100, 48 h
Candida albicans [3] = test: microbe, parasite or virus in culture; format: functional; conditions: Candida albicans, 0710922, 48 h
Description: Antifungal activity against FLC resistant Candida albicans 0710922 after 48 hrs by checkerboard microdilution method

Candida albicans [4] = test: Antifungal activity against FLC resistant Candida albicans 0304103 at 1 ug/ml up to 24 hrs by checkerboard microdilution method; format: functional, organism-based
Mus musculus [5] = test: In vivo antifungal activity against FLC resistant Candida albicans 0304103 infected in ICR mouse assessed as mouse survival at 1 mg/kg, ip qd up to 20 days (reference value: 4.5 day); format: functional
HL-60 [6] = test: Antiproliferative activity against human HL60 cells after 48 hrs by CCK-8 assay; format: functional, cell-based; conditions: HL-60, 48 h
K562 [7] = test: Antiproliferative activity against human K562 cells after 48 hrs by CCK-8 assay; format: functional, cell-based; conditions: K562, 48 h
HEL [8] = test: Antiproliferative activity against human HEL cells after 48 hrs by CCK-8 assay; format: functional, cell-based
HEL [9] = test: Induction of apoptosis in human HEL cells at 10 uM after 48 hrs by Annexin-V-FITC/propidium iodide staining based flow cytometry relative to control; format: functional
Candida albicans [10] = test: microbe, parasite or virus in culture; format: functional; conditions: Candida albicans, 0304103, 48 h; remark: listed apart in the source
Description: Antifungal activity against FLC resistant Candida albicans 0304103 assessed as fluconazol MIC50 after 48 hrs by checkerboard microdilution method

Candida albicans [11] = test: microbe, parasite or virus in culture; format: functional; conditions: Candida albicans, 0304103, 48 h; remark: listed apart in the source
Description: Antifungal activity against FLC resistant Candida albicans 0304103 after 48 hrs in presence of fluconazol by checkerboard microdilution method

Candida albicans [12] = test: microbe, parasite or virus in culture; format: functional; conditions: Candida albicans, 100, 48 h
Description: Antifungal activity against FLC resistant Candida albicans 100 assessed as fluconazol MIC50 after 48 hrs by checkerboard microdilution method

Candida albicans [13] = test: Antifungal activity against FLC resistant Candida albicans 100 after 48 hrs in presence of fluconazol by checkerboard microdilution method; format: functional; conditions: Candida albicans, 100, 48 h
Candida albicans [14] = test: microbe, parasite or virus in culture; format: functional; conditions: Candida albicans, 0710922, 48 h; remark: listed apart in the source
Description: Antifungal activity against FLC resistant Candida albicans 0710922 assessed as fluconazol MIC50 after 48 hrs by checkerboard microdilution method

Candida albicans [15] = test: microbe, parasite or virus in culture; format: functional; conditions: Candida albicans, 0710922, 48 h; remark: listed apart in the source
Description: Antifungal activity against FLC resistant Candida albicans 0710922 after 48 hrs in presence of fluconazol by checkerboard microdilution method

Candida albicans [16] = test: Synergistic antifungal activity against FLC resistant Candida albicans 0304103 assessed as FIC index after 48 hrs by checkerboard microdilution method; format: functional
Candida albicans [17] = test: Synergistic antifungal activity against FLC resistant Candida albicans 100 assessed as FIC index after 48 hrs by checkerboard microdilution method; format: functional
Candida albicans [18] = test: Synergistic antifungal activity against FLC resistant Candida albicans 0710922 assessed as FIC index after 48 hrs by checkerboard microdilution method; format: functional
HEL [19] = test: Antitumor activity against human HEL cells xenografted in BALB/C nude mouse assessed as tumor growth inhibition at 10 mg/kg, ip bid treated for 21 consecutive days relative to control; format: functional; conditions: read-out: TGI
Mus musculus [20] = test: Toxicity in BALB/C nude mouse xenografted with human HEL cells at 10 mg/kg, ip bid treated for 21 consecutive days; format: organism-based; conditions: in vivo
Mus musculus [21] = test: Toxicity in BALB/C nude mouse xenografted with human HEL cells assessed as reduction in body weight at 10 mg/kg, ip bid treated for 21 consecutive days; format: organism-based; conditions: in vivo
Mus musculus [22] = test: Protection against spleen enlargement in SCID mouse xenografted with human HEL cells at 10 mg/kg, ip qd; format: functional, organism-based
HEL [23] = test: Antitumor activity in human HEL cells xenografted in SCID mouse assessed as mouse survival at 10 mg/kg, ip qd measured after 10 days; format: functional, organism-based
Mus musculus [24] = test: In vivo antifungal activity against FLC resistant Candida albicans 0304103 infected in ICR mouse assessed as mouse survival at 5 mg/kg, ip qd up to 20 days in co-treated with 1 mg/kg, ip qd fluconazol (reference value: 4.5 day); format: functional
HEL [25] = test: Antitumor activity against human HEL cells xenografted in BALB/C nude mouse assessed as tumor growth at 10 mg/kg, ip bid treated for 21 consecutive days relative to control; format: functional
HEL [26] = test: Cell cycle arrest in human HEL cells assessed as accumulation at G1 phase at 1 to 10 uM after 48 hrs propidium iodide staining based flow cytometry; format: functional
HL-60 [27] = test: Antiproliferative activity against human HL60 cells after 48 hrs in presence of JAK2 inhibitor CYT-387 by CCK-8 assay; format: functional, cell-based; conditions: HL-60, 48 h
K562 [28] = test: Antiproliferative activity against human K562 cells after 48 hrs in presence of JAK2 inhibitor CYT-387 by CCK-8 assay; format: functional, cell-based; conditions: K562, 48 h
HEL [29] = test: Antiproliferative activity against human HEL cells after 48 hrs in presence of JAK2 inhibitor CYT-387 by CCK-8 assay; format: functional, cell-based
HEL [30] = test: Antitumor activity in human HEL cells xenografted in SCID mouse assessed as mouse survival time at 10 mg/kg, ip qd; format: functional
Mus musculus [31] = test: In vivo antifungal activity against FLC resistant Candida albicans 0304103 infected in ICR mouse assessed as mouse survival at 5 mg/kg, ip qd up to 20 days (reference value: 4.5 day); format: functional, organism-based
HEL [32] = test: Cell cycle arrest in human HEL cells assessed as accumulation at G1 phase at 1 to 5 uM after 48 hrs propidium iodide staining based flow cytometry; format: functional

SMILES | MIC50 (Candida albicans [1]) [µg/mL] | MIC50 (Candida albicans [2]) [µg/mL] | MIC50 (Candida albicans [3]) [µg/mL] | pIC50 (HL-60 [6]) | pIC50 (K562 [7]) | pIC50 (HEL [8]) | inhibition in vivo at 10 mg/kg (HEL [19]) [%] | Activity (Mus musculus [20]) | Activity (Mus musculus [21]) | Activity (Mus musculus [22]) | Activity (HEL [23]) | MST (Mus musculus [24]) [days] | T/C (HEL [25]) [%] | pIC50 (HL-60 [27]) | pIC50 (K562 [28]) | pIC50 (HEL [29]) | Activity (HEL [30]) | Activity (Mus musculus [31]) | further results
OC(Cn1cncn1)(Cn1cncn1)c1ccc(F)cc1F [FLUCONAZOLE] | > 64 | > 64 | > 64 | – | – | – | – | – | – | – | – | – | – | – | – | – | – | – | Activity (Candida albicans [4]): inactive; MST (Mus musculus [5]): 7.5 days
N#CCNC(=O)c1ccc(-c2ccnc(Nc3ccc(N4CCOCC4)cc3)n2)cc1 [MOMELOTINIB] | > 64 | > 64 | > 64 | 5.08 | 5.19 | 5.64 | 40.2 | Non-Toxic | Non-Toxic | inactive | inactive | 5.5 | 68.3 | – | – | – | – | – | Activity (HEL [9]): 25.9%; MIC50 (Candida albicans [10]): > 64 µg/mL; MIC50 (Candida albicans [11]): > 64 µg/mL; MIC50 (Candida albicans [12]): > 64 µg/mL; MIC50 (Candida albicans [13]): > 64 µg/mL; MIC50 (Candida albicans [14]): 64 µg/mL (≈ 154 µM); MIC50 (Candida albicans [15]): 64 µg/mL (≈ 154 µM); fractional inhibitory concentration index (FICI) (Candida albicans [16]): >2; fractional inhibitory concentration index (FICI) (Candida albicans [17]): >2; fractional inhibitory concentration index (FICI) (Candida albicans [18]): 2
O=C(CCCCCCC(=O)Nc1ccccc1)NO [VORINOSTAT] | – | – | – | – | 5.11 | – | – | Non-Toxic | Non-Toxic | inactive | inactive | 10 | 87.9 | – | – | – | – | – | –
O=C(CCCCCCNC(=O)c1cnc(N(c2ccccc2)c2ccccc2)nc1)NO [RICOLINOSTAT] | > 64 | > 64 | > 64 | 4.62 to 5.43 | 4.62 to 5.43 | 4.62 to 5.43 | 14.1 | – | – | inactive | – | 5 | – | 5.07 to 5.60 | 5.07 to 5.60 | 5.07 to 5.60 | inactive | inactive | Activity (HEL [26]): Active
CN1CCc2c(c3ccccc3n2Cc2ccc(C(=O)NO)cc2)C1 [TUBASTATIN A] | > 64 | > 64 | > 64 | 4.62 to 5.43 | 4.62 to 5.43 | 4.62 to 5.43 | 18.8 | – | – | inactive | – | 4.5 | – | 5.07 to 5.60 | 5.07 to 5.60 | 5.07 to 5.60 | inactive | inactive | Activity (HEL [32]): Active

Source: ChEMBL document CHEMBL4145634, “Discovery of Janus Kinase 2 (JAK2) and Histone Deacetylase (HDAC) Dual Inhibitors as a Novel Strategy for the Combinational Treatment of Leukemia and Invasive Fungal Infections” (J Med Chem, 2018)
